# Laboratory results reported in patent publication US8202507B2, “Assay for vitamin B12 absorption and method of making labeled vitamin B12” (The Regents of the University of California, priority 2004, dated 2012).
# What was measured:
# [1] = AMS assay of B12 absorption in a normal human subject after oral ^14C-vitamin B12; type: in vivo; settings: for total of oral dose recovered in urine and feces: seven days post-dose, cumulative urine and stool; for delay in the appearance of the label in plasma: plasma by AMS
# Description: This example describes the use of this labeled B12 and AMS to assay B12 absorption in a normal human subject. A single 1.5 μg dose of the ^14C-vitamin B12 was administered orally and detected by AMS as it appeared in the bloodstream.
# The subject was a healthy person with a body mass index (BMI) of 27.5. The subject began complete fecal and urine collection 24 h in advance of the dose and continued complete 24 h collections until Day 7. On the day of dose administration, the subject was fitted with an intravenous catheter in a forearm vein. Blood was drawn into 7 mL tubes containing EDTA. A baseline blood sample was drawn (7 AM) and the dose consumed that corresponded to 2.2 KBq of radioactivity (1.5 μg) was administered in 50 mL of drinking water in a paper cup. The volunteer was allowed to have water ad libitum thereafter, with a light meal taken 2 hr postdose. Blood samples were drawn at frequent intervals for the first 15 hr post-dose and daily thereafter. Meals were controlled for time and content on the dose administration day.
# AMS analysis. Aliquots of plasma (30 μL), urine (80 μL) and a stool slurry (80 μL) were dried, combusted to CO2, and reduced to filamentous carbon using known procedures. No other processing preceded the graphization step, thus quantitative recovery was ensured. The ^14C measurements were performed at the Center for Accelerator Mass Spectrometry at Lawrence Livermore National Laboratory. Measurements were conducted to <3% instrument imprecision and, in general, signal acquisition was complete to the desired statistical precision in 3-5 min per sample. The radiation exposure of the subject, due to the ^14C-B12 dose, was equivalent or less than exposure due to 10 hours of intercontinental plane flight.
# [2] = cited from earlier work
total of oral dose recovered in urine and feces [1],total of oral dose recovered in urine and feces ([1]; listed as 14C),"share of the quantified output accounted for ([1]; seventy-two hours post-dose, urine and feces)",delay in the appearance of the label in plasma ([1]; single 1.5 μg oral dose),"delay in the appearance of the label in plasma ([1]; single 1.5 μg oral dose, listed as 14C from the labeled vitamin B12)","peak circulating ^14C-B12 as percent of the administered dose ([1]; single 1.5 μg oral dose, plasma, at peak after seven hours)","label in the twenty-four hour urine collection ([1]; single 1.5 μg oral dose, urine, no flushing dose)",Substance,solubility in water ([2]; 25° C.),"solubility in acetone, chloroform and ether [2]",solubility in alcohol and phenol [2]
15.8%,15.9%,99%,two to three,three,less than three,6.8 % of administered dose,^14C-cyanocobalamin [^14C-vitamin B12],,,
,,,,,,,Cyanocobalamin,1.2%,insoluble,soluble
